Measurements reported in US11427549B2, “Pyrimidinyloxy benzo-fused compounds as herbicides” (FMC Corporation, priority 2017, dated 2022).

Assays:
[1] = system: barnyardgrass (Echinochloa crus-galli); test: Test B flooded paddy test, barnyardgrass; details: Flood, 250 g ai/ha, applied to paddy water, 2-leaf stage, visually evaluated after 13 to 15 days
[2] = system: rice (Oryza sativa); test: Test B flooded paddy test, rice; details: Flood, 250 g ai/ha, applied to paddy water, 2-leaf stage, visually evaluated after 13 to 15 days
[3] = system: wheat (Triticum aestivum); test: Test A postemergence, wheat; format: in vivo; details: 0 to 100 scale (0 no effect, 100 complete control)
Source text: (§1) Seeds of plant species selected from barnyardgrass (Echinochloa crus-galli), kochia (Kochia scoparia), ragweed (common ragweed, Ambrosia elatior), ryegrass, Italian (Italian ryegrass, Lolium multiflorum), foxtail, giant (giant foxtail, Setaria faberii), foxtail, green (green foxtail, Setaria viridis) and pigweed (Amaranthus retroflexus) were planted into a blend of loam soil and sand and treated preemergence with a directed soil spray using test chemicals formulated in a non-phytotoxic solvent mixture which included a surfactant.
(§2) At the same time, plants selected from these weed species and also wheat (Triticum aestivum), corn (Zea mays), blackgrass (Alopecurus myosuroides), and galium (catchweed bedstraw, Galium aparine) were planted in pots containing the same blend of loam soil and sand and treated with postemergence applications of test chemicals formulated in the same manner. Plants ranged in height from 2 to 10 cm and were in the one- to two-leaf stage for the postemergence treatment. Treated plants and untreated controls were maintained in a greenhouse for approximately 10 days, after which time all treated plants were compared to untreated controls and visually evaluated for injury. […] A dash (-) response means no test result.

[4] = system: kochia (Kochia scoparia); test: Test A postemergence, kochia; format: in vivo; details: 0 to 100 scale (0 no effect, 100 complete control)
Source text: as §1, §2

[5] = system: ragweed (common ragweed, Ambrosia elatior); test: Test A postemergence, ragweed; format: in vivo; details: 0 to 100 scale (0 no effect, 100 complete control)
Source text: as §1, §2

[6] = system: foxtail, green (green foxtail, Setaria viridis); test: Test A preemergence, foxtail, green; format: in vivo; details: 0 to 100 scale (0 no effect, 100 complete control)
Source text: as §1, §2

[7] = system: ryegrass, Italian (Italian ryegrass, Lolium multiflorum); test: Test A preemergence, ryegrass, Italian; format: in vivo; details: 0 to 100 scale (0 no effect, 100 complete control)
Source text: as §1, §2

[8] = system: corn (Zea mays); test: Test A postemergence, corn; format: in vivo; details: 0 to 100 scale (0 no effect, 100 complete control)
Source text: as §1, §2

[9] = system: pigweed (Amaranthus retroflexus); test: Test A postemergence, pigweed; format: in vivo; details: 0 to 100 scale (0 no effect, 100 complete control)
Source text: as §1, §2

[10] = system: foxtail, green (green foxtail, Setaria viridis); test: Test A postemergence, foxtail, green; format: in vivo; details: 0 to 100 scale (0 no effect, 100 complete control)
Source text: as §1, §2

[11] = system: barnyardgrass (Echinochloa crus-galli); test: Test A preemergence, barnyardgrass; format: in vivo; details: 0 to 100 scale (0 no effect, 100 complete control)
Source text: as §1, §2

[12] = system: ragweed (common ragweed, Ambrosia elatior); test: Test A preemergence, ragweed; format: in vivo; details: 0 to 100 scale (0 no effect, 100 complete control)
Source text: as §1, §2

[13] = system: galium (catchweed bedstraw, Galium aparine); test: Test A postemergence, galium; format: in vivo; details: 0 to 100 scale (0 no effect, 100 complete control)
Source text: as §1, §2

[14] = system: ryegrass, Italian (Italian ryegrass, Lolium multiflorum); test: Test A postemergence, ryegrass, Italian; format: in vivo; details: 0 to 100 scale (0 no effect, 100 complete control)
Source text: as §1, §2

[15] = system: kochia (Kochia scoparia); test: Test A preemergence, kochia; format: in vivo; details: 0 to 100 scale (0 no effect, 100 complete control)
Source text: as §1, §2

[16] = system: pigweed (Amaranthus retroflexus); test: Test A preemergence, pigweed; format: in vivo; details: 0 to 100 scale (0 no effect, 100 complete control)
Source text: as §1, §2

[17] = system: ducksalad (Heteranthera limosa); test: Test B flooded paddy test, ducksalad; details: Flood, 250 g ai/ha, applied to paddy water, 2-leaf stage, visually evaluated after 13 to 15 days
[18] = system: barnyardgrass (Echinochloa crus-galli); test: Test A postemergence, barnyardgrass; format: in vivo; details: 0 to 100 scale (0 no effect, 100 complete control)
Source text: as §1, §2

[19] = system: blackgrass (Alopecurus myosuroides); test: Test A postemergence, blackgrass; format: in vivo; details: 0 to 100 scale (0 no effect, 100 complete control)
Source text: as §1, §2

[20] = system: foxtail, giant (giant foxtail, Setaria faberii); test: Test A preemergence, foxtail, giant; format: in vivo; details: 0 to 100 scale (0 no effect, 100 complete control)
Source text: as §1, §2

[21] = system: foxtail, giant (giant foxtail, Setaria faberii); test: Test A postemergence, foxtail, giant; format: in vivo; details: 0 to 100 scale (0 no effect, 100 complete control)
Source text: as §1, §2

| Molecule | Plant response rating, Barnyardgrass (0 to 100 scale, 0 is no effect, 100 is complete control) [1] | Plant response rating, Rice (0 to 100 scale, 0 is no effect, 100 is complete control) [2] | Plant response rating, Wheat ([3]; 125 g ai/ha) | Plant response rating, Kochia ([4]; 125 g ai/ha) | Plant response rating, Ragweed ([5]; 125 g ai/ha) | Plant response rating, Foxtail, Green ([6]; 125 g ai/ha) | Plant response rating, Ryegrass, Italian ([7]; 125 g ai/ha) | Plant response rating, Corn ([8]; 125 g ai/ha) | Plant response rating, Pigweed ([9]; 125 g ai/ha) | Plant response rating, Foxtail, Green ([10]; 125 g ai/ha) | Plant response rating, Barnyardgrass ([11]; 125 g ai/ha) | Plant response rating, Ragweed ([12]; 125 g ai/ha) | Plant response rating, Galium ([13]; 125 g ai/ha) | Plant response rating, Ryegrass, Italian ([14]; 125 g ai/ha) | Plant response rating, Kochia ([15]; 125 g ai/ha) | Plant response rating, Pigweed ([16]; 125 g ai/ha) | Plant response rating, Ducksalad (0 to 100 scale, 0 is no effect, 100 is complete control) [17] | Plant response rating, Barnyardgrass ([18]; 125 g ai/ha) | Plant response rating, Blackgrass ([19]; 125 g ai/ha) | Plant response rating, Wheat ([3]; 31 g ai/ha) | other results |
| --- | --- | --- | --- | --- | --- | --- | --- | --- | --- | --- | --- | --- | --- | --- | --- | --- | --- | --- | --- | --- | --- |
| 5-Chloro-2-[[1-oxido-3-(4,4,4-trifluorobutyl)-3H-2,1-benzoxathiol-4-yl]oxy]pyrimidine [Compound 15] | 0 | 0 | 10 | 80 | 30 | 50 | 0 | 20 | 70 | 20 | 30 | 0 | 80 | 20 | 20 | 70 | 0 | 30 | 30 |  | Plant response rating, Wheat ([3]; 500 g ai/ha): 30; Plant response rating, Kochia ([4]; 500 g ai/ha): 90; Plant response rating, Ragweed ([5]; 500 g ai/ha): 60; Plant response rating, Foxtail, Green ([6]; 500 g ai/ha): 100; Plant response rating, Ryegrass, Italian ([7]; 500 g ai/ha): 30; Plant response rating, Corn ([8]; 500 g ai/ha): 40; Plant response rating, Pigweed ([9]; 500 g ai/ha): 90; Plant response rating, Foxtail, Green ([10]; 500 g ai/ha): 80; Plant response rating, Barnyardgrass ([11]; 500 g ai/ha): 70; Plant response rating, Ragweed ([12]; 500 g ai/ha): 20; Plant response rating, Galium ([13]; 500 g ai/ha): 80; Plant response rating, Ryegrass, Italian ([14]; 500 g ai/ha): 90; Plant response rating, Kochia ([15]; 500 g ai/ha): 80; Plant response rating, Pigweed ([16]; 500 g ai/ha): 100; Plant response rating, Barnyardgrass ([18]; 500 g ai/ha): 60; Plant response rating, Blackgrass ([19]; 500 g ai/ha): 90 |
| O=C1CC(CCCC(F)(F)F)c2c(Oc3ncc(Cl)cn3)cccc21 (stereo not shown) [Compound 6, 4-[(5-Chloropyrimidin-2-pyrimidinyl)oxy]-2,3-dihydro-3-(4,4,4-trifluorobutyl)-1H-inden-1-one] | 40 | 20 | 10 | 60 | 0 | 100 | 10 | 20 | 100 | 40 | 90 | 0 | 90 | 30 | 80 | 100 | 100 | 40 | 30 | 0 | Plant response rating, Kochia ([4]; 31 g ai/ha): 10; Plant response rating, Ragweed ([5]; 31 g ai/ha): 0; Plant response rating, Foxtail, Green ([6]; 31 g ai/ha): 20; Plant response rating, Ryegrass, Italian ([7]; 31 g ai/ha): 0; Plant response rating, Corn ([8]; 31 g ai/ha): 0; Plant response rating, Pigweed ([9]; 31 g ai/ha): 90; Plant response rating, Foxtail, Green ([10]; 31 g ai/ha): 10; Plant response rating, Barnyardgrass ([11]; 31 g ai/ha): 0; Plant response rating, Ragweed ([12]; 31 g ai/ha): 0; Plant response rating, Galium ([13]; 31 g ai/ha): 60; Plant response rating, Ryegrass, Italian ([14]; 31 g ai/ha): 0; Plant response rating, Kochia ([15]; 31 g ai/ha): 0; Plant response rating, Pigweed ([16]; 31 g ai/ha): 0; Plant response rating, Barnyardgrass ([18]; 31 g ai/ha): 10; Plant response rating, Blackgrass ([19]; 31 g ai/ha): 10 |
| O=C1OCC(CCCC(F)(F)F)c2c(Oc3ncc(Cl)cn3)cccc21 (stereo not shown) [Compound 16, 5-[(5-Chloro-2-pyrimidinyl)oxy]-3,4-dihydro-4-(4,4,4,-trifluorobutyl)-1H-2benzopyran-1-one] | 75 | 15 | 50 | 100 | 50 |  | 70 | 40 | 100 |  | 100 |  | 100 | 80 | 100 | 100 | 100 | 80 | 90 | 50 | Plant response rating, Kochia ([4]; 31 g ai/ha): 80; Plant response rating, Foxtail, Giant ([20]; 31 g ai/ha): 80; Plant response rating, Foxtail, Giant ([20]; 125 g ai/ha): 100; Plant response rating, Ragweed ([5]; 31 g ai/ha): 10; Plant response rating, Ryegrass, Italian ([7]; 31 g ai/ha): 10; Plant response rating, Corn ([8]; 31 g ai/ha): 0; Plant response rating, Pigweed ([9]; 31 g ai/ha): 80; Plant response rating, Barnyardgrass ([11]; 31 g ai/ha): 60; Plant response rating, Foxtail, Giant ([21]; 31 g ai/ha): 30; Plant response rating, Foxtail, Giant ([21]; 125 g ai/ha): 90; Plant response rating, Galium ([13]; 31 g ai/ha): 90; Plant response rating, Ryegrass, Italian ([14]; 31 g ai/ha): 20; Plant response rating, Kochia ([15]; 31 g ai/ha): 10; Plant response rating, Pigweed ([16]; 31 g ai/ha): 100; Plant response rating, Barnyardgrass ([18]; 31 g ai/ha): 30; Plant response rating, Blackgrass ([19]; 31 g ai/ha): 80 |
